Experimental findings from patent US10519147B2 (Merck Sharp & Dohme Corp., priority 2015, dated 2019) are described below.

One assay concerns the target T1, human Nav1.7 (Homo sapiens, UniProt Q15858).
T1 construct: expressed in transfected cells; host or cells: HEK 293
The experiment in a line: IonWorks Quattro automated patch-clamp, inactivated state block of Nav1.7. The format is cell-based. The following applies: channels stably expressed in HEK 293 cells; double-pulse protocol, inactivated state block; read-out: potency for the Nav 1.7 sodium ion channel (IC50, as measured by IonWorks). As to the method: (§1) Compounds were tested on human Nav1.7 and Nav1.5 channels stably expressed in HEK 293 cells. […] Cells were sealed on a planar substrate using the Population Patch […] (PPC) technology. Electrical access was obtained using both nystatin and amphotericin. A double-pulse protocol was used for the determination of IC50 values for inactivated state block. Nav1.7 and Nav1.5 expressing cells were voltage clamped at −100 mV and −110 mV, respectively. A depolarizing prepulse to −10 mV (Nav1.7) or −30 mV (Nav1.5) for 1000 ms followed by a 10 ms repolarization to −100 mV (Nav1.7) or −110 mV (Nav1.5) was given to generate fractional channel inactivation of 50%, followed by a 10 ms test pulse to −10 mV (Nav1.7) or −30 mV (Nav1.5) to measure peak current in control conditions and after compound addition. The following recording solutions were used (mM). External: 150 NaCl, 2 CaCl2, 5 KCl, 1 Mg Cl2, 10 HEPES, 12 Dextrose; internal: 120 CsF, 30 CsCl, 10 EGTA, 5 HEPES, 5 NaF, 2 MgCl2.
(§2) For all electrophysiology experiments, offline analysis was used to determine percent inhibition as a function of drug concentration. IC50 values were determined by fitting to the Hill equation.

Another assay addresses T2, human Nav1.5 (Homo sapiens, UniProt Q14524).
T2 construct: expressed in transfected cells; host or cells: HEK 293
The experiment in a line: IonWorks Quattro automated patch-clamp, Nav1.5 (selectivity against Nav1.7). In kind it is cell-based. As to conditions: IonWorks measurement, HEK 293 cells, inactivated state block. As to the method:
as §1, §2
(In general: Patch clamp records ionic current or voltage across a cell membrane.)

pIC50: −log10 of the molar value.

T2 sequence (Q14524 whole entry): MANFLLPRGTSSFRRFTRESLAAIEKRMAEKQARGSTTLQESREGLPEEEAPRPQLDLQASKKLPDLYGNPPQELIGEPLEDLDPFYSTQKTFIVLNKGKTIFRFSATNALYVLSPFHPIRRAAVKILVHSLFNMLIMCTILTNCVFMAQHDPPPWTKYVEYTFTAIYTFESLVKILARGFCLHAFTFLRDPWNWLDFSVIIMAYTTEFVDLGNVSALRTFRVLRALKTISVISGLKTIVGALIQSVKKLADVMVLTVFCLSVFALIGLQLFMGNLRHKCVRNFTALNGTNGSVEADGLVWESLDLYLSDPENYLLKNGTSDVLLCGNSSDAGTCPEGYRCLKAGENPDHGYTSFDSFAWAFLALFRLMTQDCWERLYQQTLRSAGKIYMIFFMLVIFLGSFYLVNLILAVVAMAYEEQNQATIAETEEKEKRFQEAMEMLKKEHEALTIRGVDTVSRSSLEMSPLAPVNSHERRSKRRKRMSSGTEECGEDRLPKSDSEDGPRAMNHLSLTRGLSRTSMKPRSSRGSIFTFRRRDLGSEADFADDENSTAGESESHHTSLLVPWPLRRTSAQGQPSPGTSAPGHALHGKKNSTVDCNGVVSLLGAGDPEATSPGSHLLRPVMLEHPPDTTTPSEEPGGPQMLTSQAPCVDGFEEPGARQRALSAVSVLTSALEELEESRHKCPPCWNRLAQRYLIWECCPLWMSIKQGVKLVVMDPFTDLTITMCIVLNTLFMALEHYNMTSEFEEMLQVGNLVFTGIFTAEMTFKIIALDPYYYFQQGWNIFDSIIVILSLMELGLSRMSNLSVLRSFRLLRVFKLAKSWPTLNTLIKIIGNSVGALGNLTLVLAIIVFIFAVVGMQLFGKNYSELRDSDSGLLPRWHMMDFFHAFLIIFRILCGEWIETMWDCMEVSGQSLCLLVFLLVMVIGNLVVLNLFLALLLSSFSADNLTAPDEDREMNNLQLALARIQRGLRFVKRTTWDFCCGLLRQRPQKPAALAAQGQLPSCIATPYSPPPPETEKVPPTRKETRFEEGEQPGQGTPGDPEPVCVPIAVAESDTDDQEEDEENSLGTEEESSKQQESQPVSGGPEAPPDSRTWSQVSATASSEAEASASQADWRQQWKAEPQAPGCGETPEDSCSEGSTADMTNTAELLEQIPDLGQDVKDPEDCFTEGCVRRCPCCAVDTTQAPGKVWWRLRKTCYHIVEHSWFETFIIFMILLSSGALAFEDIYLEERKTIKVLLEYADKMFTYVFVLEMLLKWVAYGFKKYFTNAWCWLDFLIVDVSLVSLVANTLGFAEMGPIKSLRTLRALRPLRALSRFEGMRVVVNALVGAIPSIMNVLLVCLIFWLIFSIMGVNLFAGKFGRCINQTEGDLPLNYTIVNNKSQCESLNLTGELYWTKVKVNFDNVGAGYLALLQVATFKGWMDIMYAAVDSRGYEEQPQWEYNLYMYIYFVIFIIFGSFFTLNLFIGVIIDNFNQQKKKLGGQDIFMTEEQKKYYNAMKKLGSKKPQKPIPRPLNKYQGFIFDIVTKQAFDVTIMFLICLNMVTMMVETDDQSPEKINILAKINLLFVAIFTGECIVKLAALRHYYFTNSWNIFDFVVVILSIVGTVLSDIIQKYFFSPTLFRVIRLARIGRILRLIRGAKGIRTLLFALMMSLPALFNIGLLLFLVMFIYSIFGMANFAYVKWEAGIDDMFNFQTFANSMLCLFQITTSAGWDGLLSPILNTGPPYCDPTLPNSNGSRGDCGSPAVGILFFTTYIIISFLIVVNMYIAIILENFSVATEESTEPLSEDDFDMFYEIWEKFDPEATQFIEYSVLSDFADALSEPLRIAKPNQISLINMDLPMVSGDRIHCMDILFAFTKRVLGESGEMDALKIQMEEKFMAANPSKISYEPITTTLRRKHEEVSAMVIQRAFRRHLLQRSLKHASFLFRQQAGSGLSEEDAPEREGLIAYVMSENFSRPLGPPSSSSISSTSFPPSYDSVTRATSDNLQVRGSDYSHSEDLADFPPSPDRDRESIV
T1 sequence (Q15858 whole entry): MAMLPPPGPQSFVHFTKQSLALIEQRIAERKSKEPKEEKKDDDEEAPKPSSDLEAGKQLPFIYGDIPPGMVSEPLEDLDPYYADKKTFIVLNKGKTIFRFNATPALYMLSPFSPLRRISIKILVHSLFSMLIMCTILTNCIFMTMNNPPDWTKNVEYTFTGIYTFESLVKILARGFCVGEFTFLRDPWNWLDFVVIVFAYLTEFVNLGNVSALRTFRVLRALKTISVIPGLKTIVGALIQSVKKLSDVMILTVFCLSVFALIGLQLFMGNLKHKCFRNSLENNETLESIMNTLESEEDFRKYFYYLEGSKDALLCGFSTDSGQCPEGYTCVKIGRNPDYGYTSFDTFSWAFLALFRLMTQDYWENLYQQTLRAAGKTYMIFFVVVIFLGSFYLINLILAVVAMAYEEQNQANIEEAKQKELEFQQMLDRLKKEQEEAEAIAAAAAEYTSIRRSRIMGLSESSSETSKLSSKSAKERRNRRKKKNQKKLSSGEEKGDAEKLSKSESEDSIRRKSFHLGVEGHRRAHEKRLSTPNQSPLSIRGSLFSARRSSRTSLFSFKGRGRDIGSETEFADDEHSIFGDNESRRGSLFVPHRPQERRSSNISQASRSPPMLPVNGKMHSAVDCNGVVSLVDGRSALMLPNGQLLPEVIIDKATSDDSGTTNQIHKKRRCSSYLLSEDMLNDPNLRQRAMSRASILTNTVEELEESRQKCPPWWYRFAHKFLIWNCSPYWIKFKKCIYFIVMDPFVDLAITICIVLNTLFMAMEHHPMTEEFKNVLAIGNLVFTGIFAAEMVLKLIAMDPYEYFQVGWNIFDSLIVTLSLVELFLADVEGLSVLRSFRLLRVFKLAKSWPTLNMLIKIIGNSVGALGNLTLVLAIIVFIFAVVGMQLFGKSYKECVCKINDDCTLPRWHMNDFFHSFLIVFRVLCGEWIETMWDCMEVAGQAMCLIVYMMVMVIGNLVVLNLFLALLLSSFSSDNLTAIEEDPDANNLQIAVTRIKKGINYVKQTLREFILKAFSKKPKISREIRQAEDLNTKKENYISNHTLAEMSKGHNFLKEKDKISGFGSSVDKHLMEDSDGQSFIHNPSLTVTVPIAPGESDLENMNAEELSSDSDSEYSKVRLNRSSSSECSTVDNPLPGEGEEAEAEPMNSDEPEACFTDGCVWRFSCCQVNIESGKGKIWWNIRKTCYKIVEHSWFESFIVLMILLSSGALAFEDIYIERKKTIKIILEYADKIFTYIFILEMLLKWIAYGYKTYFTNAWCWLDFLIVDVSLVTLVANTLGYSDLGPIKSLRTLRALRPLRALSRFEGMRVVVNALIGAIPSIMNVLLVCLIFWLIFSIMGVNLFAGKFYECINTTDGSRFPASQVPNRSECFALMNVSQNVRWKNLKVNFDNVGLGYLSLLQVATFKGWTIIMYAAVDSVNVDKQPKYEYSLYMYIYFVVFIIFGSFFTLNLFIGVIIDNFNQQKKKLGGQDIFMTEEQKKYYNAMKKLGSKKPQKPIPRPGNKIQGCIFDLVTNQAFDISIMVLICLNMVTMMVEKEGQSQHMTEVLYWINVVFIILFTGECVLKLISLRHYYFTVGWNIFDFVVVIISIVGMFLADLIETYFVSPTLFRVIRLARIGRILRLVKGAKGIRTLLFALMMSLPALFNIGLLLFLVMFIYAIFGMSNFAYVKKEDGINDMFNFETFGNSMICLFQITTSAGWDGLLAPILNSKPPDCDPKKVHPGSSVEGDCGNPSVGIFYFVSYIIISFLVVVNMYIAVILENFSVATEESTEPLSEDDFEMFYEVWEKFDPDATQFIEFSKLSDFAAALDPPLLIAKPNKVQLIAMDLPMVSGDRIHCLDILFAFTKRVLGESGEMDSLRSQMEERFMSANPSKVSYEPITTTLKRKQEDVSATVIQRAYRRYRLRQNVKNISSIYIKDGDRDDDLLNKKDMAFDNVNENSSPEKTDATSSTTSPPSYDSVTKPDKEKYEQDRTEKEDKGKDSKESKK

Broadly, the pIC50 is the IC50 on a negative log10 scale, so that one unit is a factor of ten. Take `NC1CCC1NCCCCNc1cc(F)c(S(=O)(=O)Nc2ncns2)cc1Cl` (single isomer, unassigned) [Ex 16-82, 4-[4-[[(1S,2S) or (1R,2R)-2-aminocyclobutyl]amino]butylamino]-5-chloro-2-fluoro-N-(1,2,4-thiadiazol-5-yl) benzenesulfonamide]: the pIC50 on human Nav1.7 is 8.48. In addition, on human Nav1.5, the “ratio of Nav 1.7 potency:Nav 1.5 potency” value is above 10000.

For `NC1CCC1NCCCCNc1cc(F)c(S(=O)(=O)Nc2ncns2)cc1Cl` (single isomer, unassigned) [Ex 16-83, 4-[4-[[(1R,2R) or (1S,2S)-2-aminocyclobutyl]amino]butylamino]-5-chloro-2-fluoro-N-(1,2,4-thiadiazol-5-yl)benzenesulfonamide], the pIC50 at human Nav1.7 is 8.33. In addition, the “ratio of Nav 1.7 potency:Nav 1.5 potency” value at human Nav1.5 is given as above 7020.

As to `O=S(=O)(Nc1nccs1)c1cc(Cl)c(NCCCCNC[C@@H]2CCCCN2)cc1F` [Ex 1-04, 5-chloro-2-fluoro-4-[(4-{[(2S)-piperidin-2-ylmethyl]amino}butyl)amino]-N-1,3-thiazol-2-yl-benzenesulfonamide], the pIC50 on human Nav1.7 is 8.02. The “ratio of Nav 1.7 potency:Nav 1.5 potency” value on human Nav1.5 is above 3440; at human Nav1.5 (listed as Ex1-04) it was 3440.

As to `N[C@H]1CCCC[C@@H]1NCCCCNc1cc(F)c(S(=O)(=O)Nc2nccs2)cc1Cl` [Ex 1-07, 4-[(4-{[(1S,2S)-2-amino-cyclohexyl]amino}butyl)-amino]-5-chloro-2-fluoro-N-1,3-thiazol-2-yl-benzenesulfonamide], at human Nav1.7, the negative-log IC50 (pIC50) is 7.74. For the same compound, the “ratio of Nav 1.7 potency:Nav 1.5 potency” value on human Nav1.5 is above 1800.

`C[C@H](NCCCCNc1cc(F)c(S(=O)(=O)Nc2nccs2)cc1Cl)[C@@H]1CCCN1` [Ex 1-27, 5-chloro-2-fluoro-4-{[4-({(1S)-1-[(2S)-pyrrolidin-2-yl]ethyl}amino)butyl]-amino}-N-1,3-thiazol-2-yl-benzenesulfonamide]: the pIC50 at human Nav1.7 was 7.51. In addition, the “ratio of Nav 1.7 potency:Nav 1.5 potency” value at human Nav1.5 is reported as above 1070.

`O=S(=O)(Nc1nccs1)c1cc(Br)c(NCCCCN[C@@H]2CCNC2)cc1F` [Ex 16-37, 5-bromo-2-fluoro-4-({4-[(3R)-pyrrolidin-3-ylamino]-butyl}amino)-N-1,3-thiazol-2-ylbenzenesulfonamide]: at human Nav1.7, the pIC50 was 7.72.

Consider `O=S(=O)(Nc1nccs1)c1cc(Cl)c(NCCCCN[C@H]2CCCCNC2)cc1F` [Ex 16-41, (S)-4-{[4-(azepan-3-ylamino)-butyl]amino}-5-chloro-2-fluoro-N-1,3-thiazol-2-yl-benzenesulfonamide], for which, on human Nav1.7, the pIC50 was 7.85.

Take `CNCCNCCCCNc1cc(F)c(S(=O)(=O)Nc2ncc(Cl)s2)cc1Cl` [Ex 16-49, 5-chloro-N-(5-chloro-1,3-thiazol-2-yl)-2-fluoro-4-[(4-{[2-(methylamino)ethyl]-amino}butyl)amino] benzene-sulfonamide]: the negative-log IC50 (pIC50) on human Nav1.7 was 7.85.

Take `CNCCNCCCCNc1cc(F)c(S(=O)(=O)Nc2nccs2)cc1Br` [Ex 16-50, 5-bromo-2-fluoro-4-[(4-{[2-(methylamino)ethyl]amino}-butyl)amino]-N-1,3-thiazol-2-ylbenzenesulfonamide]: on human Nav1.7, the negative logarithm of the IC50 (pIC50) is 7.96.

On to `CNCCCNCCCCNc1cc(F)c(S(=O)(=O)Nc2nccs2)cc1Br` [Ex 16-55, 5-bromo-2-fluoro-4-[(4-{[3-(methylamino)propyl]amino}butyl)amino]-N-1,3-thiazol-2-ylbenzenesulfonamide], for which the pIC50 on human Nav1.7 was 7.74.

As for `CNCCCNCCCCNc1cc(F)c(S(=O)(=O)Nc2ncc(F)s2)cc1Br` [Ex 16-56, 5-bromo-2-fluoro-N-(5-fluoro-1,3-thiazol-2-yl)-4-[(4-{[3-(methylamino)-propyl]amino}butyl)amino]-benzenesulfonamide], the negative-log IC50 (pIC50) on human Nav1.7 is 7.92.

As for `O=S(=O)(Nc1ncns1)c1cc(Cl)c(NCCCCNCCCNCCF)cc1F` [Ex 16-58, 5-chloro-2-fluoro-4-{[4-({3-[(2-fluoroethyl)amino]-propyl}amino)butyl]amino}-N-1,2,4-thiadiazol-5-yl-benzenesulfonamide], the pIC50 on human Nav1.7 is 7.43.

As for `C[C@H](CN)NCCCCNc1cc(F)c(S(=O)(=O)Nc2ncns2)cc1Cl` [Ex 16-60, 4-[(4-{[(1R)-2-amino-1-methylethyl]amino}butyl)-amino]-5-chloro-2-fluoro-N-1,2,4-thiadiazol-5-yl-benzenesulfonamide], the negative-log IC50 (pIC50) on human Nav1.7 was 7.96.

With `CC(C)(CN)NCCCCNc1cc(F)c(S(=O)(=O)Nc2ncc(F)s2)cc1Cl` [Ex 16-61, 4-({4-[(2-amino-1,1-dimethylethyl)amino]butyl}amino)-5-chloro-2-fluoro-N-(5-fluoro-1,3-thiazol-2-yl)benzenesulfonamide], at human Nav1.7, the pIC50 is 7.68.

Turning to `NC1(CNCCCCNc2cc(F)c(S(=O)(=O)Nc3ncc(F)s3)cc2Cl)CC1` [Ex 16-63, 4-[(4-{[(1-aminocyclopropyl)methyl]amino}butyl)amino]-5-chloro-2-fluoro-N-(5-fluoro-1,3-thiazol-2-yl)benzenesulfonamide], at human Nav1.7, the pIC50 was 7.25.

Take `CN[C@H](C)CNCCCCNc1cc(F)c(S(=O)(=O)Nc2ncc(F)s2)cc1Cl` [Ex 16-65, 5-chloro-2-fluoro-N-(5-fluoro-1,3-thiazol-2-yl)-4-[(4-{[(2R)-2-(methylamino)propyl]amino}butyl)amino] benzenesulfonamide]: the pIC50 on human Nav1.7 is 7.55.

Take `C[C@@H](CN)NCCCCNc1cc(F)c(S(=O)(=O)Nc2ncc(F)s2)cc1Cl` [Ex 16-66, 4-[(4-{[(1S)-2-amino-1-methylethyl]amino}butyl)amino]-5-chloro-2-fluoro-N-(5-fluoro-1,3-thiazol-2-yl)benzenesulfonamide]: the negative logarithm of the IC50 (pIC50) at human Nav1.7 is 7.80.

`C[C@@H](CN)NCCCCNc1cc(F)c(S(=O)(=O)Nc2ncns2)cc1Cl` [Ex 16-67, 4-[(4-{[(1S)-2-amino-1-methylethyl]amino}butyl)amino]-5-chloro-2-fluoro-N-1,2,4-thiadiazol-5-ylbenzenesulfonamide]: the pIC50 on human Nav1.7 was 7.80.

`NC1(CNCCCCNc2cc(F)c(S(=O)(=O)Nc3ncc(F)s3)cc2Cl)CCC1` [Ex 16-69, 4-[(4-{[(1-aminocyclobutyl)methyl]amino}butyl)amino]-5-chloro-2-fluoro-N-(5-fluoro-1,3-thiazol-2-yl)benzenesulfonamide]: the negative logarithm of the IC50 (pIC50) on human Nav1.7 was 7.74.

With `N[C@H]1CCC[C@@H]1NCCCCNc1cc(F)c(S(=O)(=O)Nc2nccs2)cc1Cl` [Ex 16-72, 4-[(4-{[(1S,2S)-2-aminocyclopentyl]amino}butyl)amino]-5-chloro-2-fluoro-N-1,3-thiazol-2-ylbenzenesulfonamide], the negative logarithm of the IC50 (pIC50) on human Nav1.7 is 7.96.

For the compound `O=S(=O)(Nc1ncc(F)s1)c1cc(Cl)c(NCCCCNC[C@H]2CCN2)cc1F` [Ex 16-73, 4-[(4-{[(2R)-azetidin-2-ylmethyl]amino}butyl)amino]-5-chloro-2-fluoro-N-(5-fluoro-1,3-thiazol-2-yl)benzenesulfonamide], the negative-log IC50 (pIC50) on human Nav1.7 is 7.72.

For `C[C@H](CN)NCCCCNc1cc(F)c(S(=O)(=O)Nc2ncns2)cc1Br` [Ex 16-78, 4-[(4-{[(1R)-2-amino-1-methylethyl]amino}butyl)amino]-5-bromo-2-fluoro-N-1,2,4-thiadiazol-5-ylbenzenesulfonamide], the pIC50 on human Nav1.7 is 7.92.

As for `NC1(CNCCCCNc2cc(F)c(S(=O)(=O)Nc3ncns3)cc2Br)CC1` [Ex 16-89, 4-[4-[(1-aminocyclopropyl)methylamino]butylamino]-5-bromo-2-fluoro-N-(1,2,4-thiadiazol-5-yl)benzenesulfonamide], at human Nav1.7, the pIC50 was 7.92.

`CNCCNCCCCNc1cc(F)c(S(=O)(=O)Nc2ncns2)cc1Br` [Ex 16-90, 5-bromo-2-fluoro-4-[4-[2-(methylamino)ethylamino]butylamino]-N-(1,2,4-thiadiazol-5-yl)benzenesulfonamide]: the pIC50 on human Nav1.7 was 8.29.

As to `CNCCCNCCCCNc1cc(F)c(S(=O)(=O)Nc2ncns2)cc1Br` [Ex 16-91, 5-bromo-2-fluoro-4-[4-[3-(methylamino)propylamino]butylamino]-N-(1,2,4-thiadiazol-5-yl)benzenesulfonamide], the negative logarithm of the IC50 (pIC50) on human Nav1.7 was 7.85.

As for `CC1(NCCCCNc2cc(F)c(S(=O)(=O)Nc3ncns3)cc2Br)CCNC1` (stereo not shown) [Ex 16-96, 5-bromo-2-fluoro-4-[4-[(3-methylpyrrolidin-3-yl)amino]butylamino]-N-(1,2,4-thiadiazol-5-yl)benzenesulfonamide], on human Nav1.7, the pIC50 was 7.82.

For the compound `NCCCNCCCCNc1cc(F)c(S(=O)(=O)Nc2ncns2)cc1Br` [Ex 16-97, 4-[4-(3-aminopropylamino)butylamino]-5-bromo-2-fluoro-N-(1,2,4-thiadiazol-5-yl)benzenesulfonamide], at human Nav1.7, the negative-log IC50 (pIC50) is 7.74.

In the case of `O=S(=O)(Nc1ncns1)c1cc(Br)c(NCCCCN[C@H]2CCNC2)cc1F` [Ex 16-100, (S)-5-bromo-2-fluoro-4-((4-(pyrrolidin-3-ylamino)butyl)amino)-N-(1,2,4-thiadiazol-5-yl)benzenesulfonamide], the negative-log IC50 (pIC50) on human Nav1.7 is 7.82.
